Results on two substances are retold here after patent US8492329B2, “Bioactive peptides and methods of using same” (Compugen Ltd., priority 2007, dated 2013).

Assay [1] has as its system untransfected CHO-K1 cells. The assay is described as follows: ACEA RT-CES cell impedance, untransfected CHO-K1 cells. Type of assay: cell-based. The settings on record: for effect on cell impedance (normalized cell index): P74C13V 10 uM, H2 Relaxin 1 uM, FIG. 11; for dose response activation (cell impedance): data not shown. From the text: ACEA RT-CES screen is a noninvasive and label-free assay for GPCRs that can be used with both engineered and nonengineered cell lines. The assay is based on using cell-electrode impedance to measure minute changes in cellular morphology as a result of ligand-dependent GPCR activation and is described in Naichen Yu, et al., Anal. Chem., 78 (1), 35-43, 2006. 10.1021/ac051695v S0003-2700(05)01695-1. The Rho family of small GTPases, which include Rho, Rac, and CDC42, are well-characterized effectors of oncogenes, growth factor and adhesion-mediated signaling pathways and are not classically thought of as being key effectors for GPCRs. Rho family GTPases participate in a number of cellular processes, the main one being regulation and maintenance of specific structures within the actin cytoskeleton framework. […] The current view of the actin cytoskeleton is that of a dynamic and plastic system that is a reflection and manifestation of the intracellular signaling and not simply a static structure designed to maintain cellular architecture. Since GPCRs couple to the actin cytoskeletal network and induce very defined morphological changes, it is possible to harness this information as a functional and biologically relevant readout for GPCRs.
ACEA biosciences; has designed electronic cell sensor arrays embedded in the bottom of the well of microtiter plates that are capable of measuring minute changes in cell morphology. The electronic sensors measure changes in cell-substrate impedance as a result of the disruption of the ionic environment due to the presence of cell and cell morphology dynamics. The main advantages offered by using cell-substrate impedance and cell morphology as a readout are that both exogenously expressed and endogenous receptors can be assayed without the need for engineering the cell with promiscuous G proteins and reporters or labeling the cells with dyes. In addition, since the readout is noninvasive, multiple stimulations with the same ligand or different ligands can be performed to assess events such as desensitization and receptor cross-talk. Finally, another major aspect of using cell-substrate impedance and cell morphology as a readout is that potentially all GPCRs, regardless of the signaling pathways, can be functionally monitored.
Peptides were synthesized by the solid phase peptide synthesis (SPPS) method, cleaved from the resin, and purified by RP-HPLC unless stated otherwise. […] Final purity of peptide was >90% as measured by RP-HPLC. […]
Before the transfected cells were seeded, […] SFM F12-HAM medium were added to each well of the E-plates and background levels were recorded.
Total cell number was calculated and cells were re-suspended in complete growth medium to cell concentration ranging from 0.3125×10^6/mL up to 0.4375×10^6/mL. […]

The next assay deals with T1, GPR39 (Homo sapiens, UniProt O43194).
T1 construct: expressed in transfected cells; host or cells: CHO-K1 (transient, FuGENE6; pIRES-eGFP co-transfected)
T1 sequence (O43194 1-453): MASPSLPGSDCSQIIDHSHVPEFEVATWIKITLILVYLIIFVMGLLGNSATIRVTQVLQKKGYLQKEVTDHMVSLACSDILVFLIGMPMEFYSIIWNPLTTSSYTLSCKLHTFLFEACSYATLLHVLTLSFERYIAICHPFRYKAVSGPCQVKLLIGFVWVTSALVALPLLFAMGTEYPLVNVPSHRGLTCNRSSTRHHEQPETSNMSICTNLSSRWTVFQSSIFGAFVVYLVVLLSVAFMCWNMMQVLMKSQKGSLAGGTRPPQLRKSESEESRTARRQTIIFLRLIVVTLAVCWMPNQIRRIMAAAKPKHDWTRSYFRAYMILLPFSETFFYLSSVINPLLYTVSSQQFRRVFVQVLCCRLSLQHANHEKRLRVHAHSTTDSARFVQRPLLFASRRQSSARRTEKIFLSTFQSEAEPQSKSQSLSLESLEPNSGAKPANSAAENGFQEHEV
The assay is described as follows: ACEA RT-CES cell impedance, GPR39 transfected CHO-K1 cells. It is filed as cell-based. The note with it: P74C13V 10 uM, H2 Relaxin 1 uM, FIG. 12. From the text:
ACEA RT-CES screen is a noninvasive and label-free assay for GPCRs that can be used with both engineered and nonengineered cell lines. The assay is based on using cell-electrode impedance to measure minute changes in cellular morphology as a result of ligand-dependent GPCR activation and is described in Naichen Yu, et al., Anal. Chem., 78 (1), 35-43, 2006. 10.1021/ac051695v S0003-2700(05)01695-1. The Rho family of small GTPases, which include Rho, Rac, and CDC42, are well-characterized effectors of oncogenes, growth factor and adhesion-mediated signaling pathways and are not classically thought of as being key effectors for GPCRs. […] Since GPCRs couple to the actin cytoskeletal network and induce very defined morphological changes, it is possible to harness this information as a functional and biologically relevant readout for GPCRs.
ACEA biosciences; has designed electronic cell sensor arrays embedded in the bottom of the well of microtiter plates that are capable of measuring minute changes in cell morphology. […] The main advantages offered by using cell-substrate impedance and cell morphology as a readout are that both exogenously expressed and endogenous receptors can be assayed without the need for engineering the cell with promiscuous G proteins and reporters or labeling the cells with dyes. […]

No end group written: not given here.

For “H2 Relaxin: H2 Relaxin (ACS), positive control, known ligand of LGR7 (RXFP1) [reference compound]”, the “effect on cell impedance (normalized cell index)” value is “moderate effect” in assay [1] and “moderate yet visible effect” with GPR39. The “dose response activation (cell impedance)” value in assay [1] is on record as “no dose dependent activation but only a moderate activation of the highest concentrations”.
The like results for “GQKGQVGPPGAAVRRAYAAFSVGRRAYAAFSV-OH [Peptide P74C13V]” were, in that order, “moderate effect”, “moderate yet visible effect” and “no dose dependent activation but only a moderate activation of the highest concentrations”.
